Assay [1] deals with β-Gal-specific IgG isotypes. In words: IgG isotype ELISA (IgG, IgG1, IgG2a) in sera of vaccinated mice. The class given is in vivo, Balb/c mice. The following applies: for enhancement of β-Galactosidase-specific IgG secretion vs β-Gal alone / increase of β-Gal-specific IgG1 secretion vs β-Gal alone / increase of β-Gal-specific IgG2a secretion vs β-Gal alone / increase of β-Gal specific IgG1 secretion vs β-Gal alone / secretion of IgG2a isotype vs β-Gal alone: 10 μg glycolipid; for increase of β-Gal specific IgG1 secretion vs β-Gal alone / secretion of IgG2a isotype vs β-Gal alone: s.c. (parenteral); for enhancement of β-Galactosidase-specific IgG2a isotype vs β-Gal alone: 20 or 30 μg glycolipid, dose-dependent. Here is the method:
Co-administration of β-Gal with 10 μg glycolipids 1, 5 and 6 induced β-Gal-specific systemic IgG responses in Balb/c mice. Balb/c mice were immunized by the i.n. or s.c. route with β-Gal alone or together with glycolipids 1, 5 and 6 three times at 2-wk intervals. 10 days after the final immunization, the immunized mice were sacrificed. The levels of β-Gal-specific titers of IgG isotypes were determined in Sera of mice immunized by the i.n. (A) and s.c. (B) route. […] Bars represent mean Ab titer or amount±SE in each group. Each group consists of five mice. Data are representative of three separate experiments.
Co-administration of β-Gal with 20 or 30 μg glycolipids 5 and 6, respectively, induced β-Gal-specific systemic IgG responses in Balb/c mice. Balb/c mice were immunized by the i.n. or s.c. route with β-Gal alone or together with glycolipids 5 and 6 three times at 2-wk intervals. 10 days after the final immunization, the immunized mice were sacrificed. The levels of β-Gal-specific titers of IgG isotypes were determined in Sera of mice immunized by the i.n. (A) and s.c. (B) route. […] The parenteral administration of with β-Gal co-administered with 20 μg glycolipids 5 and 6 enhanced the β-Galactosidase-specific IgG1 isotype titer (>250000) in comparison to animals which were immunized with β-Gal alone. Bars represent mean Ab titer or amount±SE in each group. Each group consists of five mice. Data are representative of two separate experiments.
Isotyp ELISA: 96-well Nunc-Immuno MaxiSorp assay plates (Nunc, Roskilde, Denmark) were coated with 100 μl of β-Gal (Boehringer, Mannheim, Germany) at 5 μg/ml in 0.05 M carbonate buffer (pH 8.2) per well. Serial two-fold dilutions of sera or lavages in PBS with 1% BSA and 0.05% Tween 20 were added (100 μl/well), and plates incubated for 2 h at 37° C. After washing, biotin-conjugated rat anti-mouse IgG1 or IgG2a (Pharmingen, Hamburg, Germany) were added to determine IgG subclasses. Plates were incubated for an additional 1 h at 37° C. After four washes, 100 μl of peroxidase-conjugated streptavidin (Pharmingen) was added to cells and plates incubated at 37° C. for 30 min. After four washes, reactions were developed with ABTS in 0.1 M citrate-phosphate buffer (pH 4.35) containing 0.01% H2O2. To determine the concentration of IgG subclasses in serum, standard curves were obtained by coating the wells with an isotype-specific goat anti-mouse IgG, and then by incubating with purified mouse IgG1 or IgG2a antibodies (Dianova, Hamburg, Germany).
(ELISA stands for enzyme-linked immunosorbent assay.)

For assay [2], the system named is IFNγ, IL-2 and IL-4 secreting splenocytes. The assay is described as follows: Elispot of cytokine-secreting splenocytes (IFNγ, IL-2, IL-4). The assay is classed as in vivo, Balb/c mice. The following applies: for spot forming units (SFU) secreting IFNγ / spot forming units (SFU) secreting IFNγ / cytokine secretion: i.n.; for spot forming units (SFU) secreting IFNγ / secretion of IFNγ, IL-2 and IL-4 (SFU) vs β-Gal alone: 10 μg glycolipid; for spot forming units (SFU) secreting IFNγ: MHC class I restricted β-Gal peptide 2 μg/ml, 24 h; for secretion of IFNγ, IL-2 and IL-4 (SFU) vs β-Gal alone / secretion of IFNγ, IL-2 and IL-4 (SFU) vs control animals: s.c. (parenteral); for spot forming units (SFU) secreting IFNγ / cytokine secretion / secretion of IFNγ, IL-2 and IL-4 (SFU) vs control animals: 20 up to 30 μg glycolipid. Here is the method: Co-administration of β-Gal with 10 μg glycolipids 1, 5 and 6 induced a strong cellular immune responses and enhanced levels of IFNγ, IL-2 and IL-4 in response to enhanced concentration of the β-Gal antigen in Balb/c mice. Balb/c mice were immunized by the i.n. or s.c. route with β-Gal alone or together with glycolipids 1, 5 and 6 three times at 2-wk intervals. 10 days after the final immunization, the immunized mice were sacrificed. Splenocytes of mice immunized by the i.n. (FIG. 12) and s.c. (FIG. 13) route were collected and cultured with different concentrations of the antigen. A total of 5×10^6 cells/ml spleen cells were cultured with 2 μg/ml of the MHC cI.I restricted β-Gal peptide (IFNγ) for 24 h and the β-Gal-Protein (IL-2 and 4) for 48 h. IFNγ producing CD8+ T cells were analyzed using BD Elispot kit according to the manufacturer's instructions. […] Bars represent Spot forming units of 10^6 splenocytes with subtracted background mean SFU±SE in each group. Each group consists of five mice. Data are representative of three separate experiments.
Co-administration of β-Gal with 20 up to 30 μg glycolipids 5 and 6 induced strong cellular immune responses and enhanced levels of IFNγ, IL-2 and IL-4 in response to enhanced concentration of the β-Gal antigen in Balb/c mice. Balb/c mice were immunized by the i.n. or s.c. route with β-Gal alone or together with glycolipids 5 and 6 three times at 2-wk intervals. 10 days after the final immunization, the immunized mice were sacrificed. Splenocytes of mice immunized by the i.n. (FIG. 14) and s.c. (FIG. 15) route were collected and cultured with different concentrations of. A total of 5×10^6 cells/ml spleen cells were cultured with 2 μg/ml of the MHC class I restricted β-Gal peptide (IFNγ) for 24 h and the β-Gal-Protein (IL-2 and 4) for 48 h. IFNγ producing CD8+ T cells were analyzed using BD Elispot kit according to the manufacturer's instructions. […] Bars represent Spot forming units of 10^6 splenocytes with subtracted background mean SFU±SEM in each group. Each group consists of five mice. Data are representative of three separate experiments.
Experimental protocol: Spleens from vaccinated mice were removed and pooled for analysis of cellular immune responses. The protocol for vaccination was identical to the protocol described in Example 2. Cells were grown in RPMI 1640 supplemented with 10% fetal calf serum, 100 U/ml of penicillin, 50 μg/ml of streptomycin, 5×10^−5 M 2-mercaptoethanol and 1 mM L-glutamine (GIBCO BRL, Karlsruhe, Germany) and maintained at 37° C. in a humidified 5% CO2 atmosphere. Lymph node and spleen cell suspensions were adjusted to 5×10^6 cells/ml in complete medium, cells were seeded with 100 μl per well in a flat-bottomed 96-well microtiter plate (Nunc) and plates were incubated for 4 days in the presence of different concentrations of soluble β-Gal.
Splenocytes of mice immunized by the i.n. (FIG. 12) and s.c. (FIG. 13) route were collected and cultured with different concentrations of the antigen. A total of 5×10^6 cells/ml spleen cells were cultured with 2 μg/ml of the MHC cI.I restricted β-Gal peptide (IFNγ) for 24 h and the β-Gal-Protein (IL-2 and 4) for 48 h. IFNγ producing CD8+ T cells were analyzed using BD Elispot kit according to the manufacturer's instructions. […] Bars represent Spot forming units of 10^6 splenocytes with subtracted background mean SFU±SE in each group. Each group consists of five mice. Data are representative of three separate experiments.

Where [3] appears, read: i.n. co-administration with β-Gal (FIG. 9 and FIG. 10).
The mark [4] stands for this setting: s.c. co-administration with β-Gal (FIG. 9 and FIG. 10).

Regarding `CCCCCCCC/C=C\CCCCCCCCOCC(COCCCCCCCC/C=C\CCCCCCCC)O[C@@H]1O[C@H](CO)[C@@H](O[C@H]2O[C@H](CO)[C@@H](O)[C@H](O)[C@H]2O)[C@H](O)[C@H]1O` (relative stereo) [glycolipid 1, 1,3-Di-O[cis-9-octadecenyl]-2-O-[4′-O-(α-D-glycopyranosyl)-β-D-glycopyranosyl]-sn-glycerol], in assay [1] (setting [3]), the “IgG1 / IgG2a isotype pattern (Th2 / Th1)” value is reported as “dominant Th2 pattern”. In addition, in assay [1] (i.n.), the “enhancement of β-Galactosidase-specific IgG secretion vs β-Gal alone” value is given as “no effect”, the “increase of β-Gal-specific IgG1 secretion vs β-Gal alone” value was “no effect” and the “increase of β-Gal-specific IgG2a secretion vs β-Gal alone” value is listed as “no effect”. In assay [1], the “increase of β-Gal specific IgG1 secretion vs β-Gal alone” value turned out to be 2.5 fold and the “secretion of IgG2a isotype vs β-Gal alone” value was “no enhanced secretion”. In assay [1] (setting [4]), the “IgG1 / IgG2a isotype pattern (Th2 / Th1)” value is “dominant Th2 pattern”. Moreover, in assay [2], the “spot forming units (SFU) secreting IFNγ” value is reported as “only a weak secretion”; the “secretion of IFNγ, IL-2 and IL-4 (SFU) vs β-Gal alone” value (“secretion of IFNγ … vs β-Gal alone” for short) is listed as “only weak enhanced secretion”.

Turning to `CCCCCCCCCCCCCCOCC(COCCCCCCCCCCCCCC)O[C@@H]1O[C@H](CO)[C@@H](O[C@H]2O[C@H](CO)[C@@H](O)[C@H](O)[C@H]2O)[C@H](O)[C@H]1O` [glycolipid 5, 1,3-Di-O-tetradecyl-2-O-[4′-O-(α-D-glucopyranosyl)-β-D-glucopyranosyl]-sn-glycerol], the “IgG1 / IgG2a isotype pattern (Th2 / Th1)” value in assay [1] (setting [3]) is reported as “dominant Th2 pattern”. In assay [1] (i.n.), the “enhancement of β-Galactosidase-specific IgG secretion vs β-Gal alone” value was determined as 29 fold, the “increase of β-Gal-specific IgG1 secretion vs β-Gal alone” value turned out to be 50 fold, the “increase of β-Gal-specific IgG2a secretion vs β-Gal alone” value was determined as 6 fold and the “enhancement of β-Galactosidase-specific IgG2a isotype vs β-Gal alone” value is 7 fold. Further, in assay [1], the “increase of β-Gal specific IgG1 secretion vs β-Gal alone” value is reported as 2.2 fold and the “secretion of IgG2a isotype vs β-Gal alone” value was “no enhanced secretion”. For the same compound, the “IgG1 / IgG2a isotype pattern (Th2 / Th1)” value in assay [1] (setting [4]) is on record as “dominant Th2 pattern”. Moreover, the “enhancement of β-Galactosidase-specific IgG secretion vs β-Gal alone” value in assay [1] (s.c.) worked out at 7 fold. In assay [2], the “spot forming units (SFU) secreting IFNγ” value is given as “enhanced expression”; the “spot forming units (SFU) secreting IFNγ / cytokine secretion” value was “enhanced expression”; the “secretion of IFNγ … vs β-Gal alone” value is reported as “only weak enhanced secretion”; the “secretion of IFNγ, IL-2 and IL-4 (SFU) vs control animals” value is reported as “only a minor effect”.

In the case of `CCCCCCCCCCCCCCOCC(COCCCCCCCCCCCCCC)O[C@@H]1O[C@H](CO[C@H]2O[C@H](CO)[C@H](O)[C@H](O)[C@H]2O)[C@@H](O)[C@H](O)[C@H]1O` [glycolipid 6, 1,3-di-O-tetradecyl-2-O-[6′-O-(α-D-galactopyranosyl)-β-D-glucopyranosyl]-sn-glycerol], in assay [1] (setting [3]), the “IgG1 / IgG2a isotype pattern (Th2 / Th1)” value is “comparable expression of IgG1 and IgG2a isotypes”. For the same compound, in assay [1] (i.n.), the “enhancement of β-Galactosidase-specific IgG secretion vs β-Gal alone” value came out at 8 fold, the “increase of β-Gal-specific IgG1 secretion vs β-Gal alone” value is on record as 24 fold, the “increase of β-Gal-specific IgG2a secretion vs β-Gal alone” value came to 1.8 fold and the “enhancement of β-Galactosidase-specific IgG2a isotype vs β-Gal alone” value was 7 fold. Also, in assay [1], the “increase of β-Gal specific IgG1 secretion vs β-Gal alone” value was “no effect” and the “secretion of IgG2a isotype vs β-Gal alone” value is listed as “no enhanced secretion”. In assay [1] (setting [4]), the “IgG1 / IgG2a isotype pattern (Th2 / Th1)” value was “dominant Th2 response”. In assay [2], the “spot forming units (SFU) secreting IFNγ” value is “only a weak secretion”; the “spot forming units (SFU) secreting IFNγ / cytokine secretion” value is given as “reduced cytokine secretion”; the “secretion of IFNγ … vs β-Gal alone” value is recorded as “only weak enhanced secretion”; the “secretion of IFNγ, IL-2 and IL-4 (SFU) vs control animals” value is reported as “only a minor effect”.
